Measurements published in publication PMC6774072, “Azologization and repurposing of a hetero-stilbene-based kinase inhibitor: towards the design of photoswitchable sirtuin inhibitors” (Beilstein Journal of Organic Chemistry, 2019).
Where two headings read alike, the source gives them in different places.

Columns and labels:
[1] = PSS thermal half-life of 11 by UV/Vis spectroscopy; type: physicochemical; details: PSS after 365 nm irradiation; 50 µM in 5% DMSO (v/v) in enzyme assay buffer
Description: PSS thermal half-life of 11
The thermal half-life of 11 after 5 minutes of 365 nm irradiation was determined by UV/Vis-spectroscopy. Therefore, a 50 µM solution of 11 in 5% DMSO (v/v) in enzyme assay buffer was prepared and an initial spectrum of the thermal equilibrium recorded. After 5 minutes of irradiation with 365 nm the increase of absorbance at the thermal equilibrium maximum ( λ = 324 nm) was followed over a period of 96 hours (Figure S6). Absorbance at 324 nm was plotted as a function of time. A non-linear regression yielded the half-live of the PSS. Due to the slow rate of thermal isomerization only a short period could be measured. Therefore the limit value was set to 0.939 as this was the absorbance at 324 nm of 11 at the thermal […]
Figure S6: 11 (50 µM) in 5% DMSO (v/v) in enzyme assay buffer after 5 minutes of 365 nm irradiation. Absorbance at 324 nm of plotted as a function of time with non-linear fit (red line).
(1 picture or pasted object on this page, not shown here)
Table S2: Non-linear fit of measured values.

[2] = isomer composition of 11 at thermal equilibrium and photostationary states, HPLC with UV–vis detection at the isosbestic points; type: physicochemical
Text: The photoisomerization could be reversed by exposure to visible light, i.e. 452 nm, albeit the PSS at 452 nm still comprised about 25% of (Z)-11 as determined by HPLC analysis using UV–vis detection at the isosbestic points (Table 2). Light of 500 nm could also reverse photoisomerization, but was not as effective as 452 nm radiation. […] Switching between the two PSS could be repeated several times without any observable fatigue of the compound (Figure 5).
Photochemistry: All photoisomerization experiments were conducted under ruby light of 630 nm. Illumination was executed using a Bio-Link 254 Crosslinker from Vilber-Lourmat equipped with six Vilber-Lourmat T8-C lamps (8 W, 254 nm) or six Vilber-Lourmat T8-L lamps (8W, 365 nm), respectively. Visible light radiation of 630 nm (red), 500 nm (green) and 452 nm (blue) was derived from a Paulmann FlexLED 3D strip. All compounds were irradiated in solution, using spectrophotometric grade solvents. Photoisomerization and UV–vis spectra measurement was conducted in quartz cuvettes at room temperature. […]
of 11 (1 mM) were injected before and after 5 minutes of 365 nm or 1 minute of 452 nm irradiation. Isocratic elution with 60% MeOH and 40% water (+ 0.1% HCOOH) for 12 minutes at 1 mL∙min−1 was applied and gave complete separation of the isomers. Integration of the peak areas at the isosbestic points (λobs = 244 nm and 270 nm) gave the relative percentage of (E)-11 and (Z)-11, respectively (Figure S5).
Table S1. Isomer composition ((E)-11 / (Z)-11) at the thermal equilibrium (∆) and the PSS after 5 minutes of 365 nm and 1 minute of 452 nm radiation. […]

[3] = target: T1, Sirt2 (Homo sapiens, UniProt Q8IXJ6); assay: fluorescence-based deacetylase assay with Z-Lys(acetyl)-AMC (ZMAL) substrate; type: biochemical; details: read-out: Sirt2 inhibition IC50
T1 construct: Sirt2_56−356; made in house
T1 sequence (Q8IXJ6 56-356): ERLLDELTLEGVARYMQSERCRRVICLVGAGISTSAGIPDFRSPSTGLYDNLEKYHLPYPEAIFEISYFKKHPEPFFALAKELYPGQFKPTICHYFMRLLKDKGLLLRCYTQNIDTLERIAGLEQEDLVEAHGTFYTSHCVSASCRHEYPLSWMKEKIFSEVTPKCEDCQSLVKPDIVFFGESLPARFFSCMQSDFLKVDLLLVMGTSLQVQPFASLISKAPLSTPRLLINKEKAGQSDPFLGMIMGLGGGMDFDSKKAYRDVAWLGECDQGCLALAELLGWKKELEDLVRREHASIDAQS
Description: The influence on deacetylase activity of three human sirtuin isoforms (Sirt1–3) was determined in a fluorescence-based assay, using Z-Lys(acetyl)-AMC (ZMAL) as a substrate. Compared to the lead structure 2a, all compounds except 2e–h show increased inhibitory activity against Sirt2 (Table 1). […] Moreover, a slight increase in selectivity for Sirt2 and Sirt3 over Sirt1 could be observed for 2c, 4a and 4b. […] Though not photoswitchable, compounds 4a and 4b were synthesized to test the influence of a rigid conformation around the C=C double bond on sirtuin inhibition. […] A recently developed fluorescence polarization (FP)-based assay enables mapping of ligand binding to this specific binding site. For 2a an interaction with the selectivity pocket was already implied in the same work. Additionally performed docking studies proposed a binding mode in which 2a mimics the nicotinamide residue of NAD^+, whereas aromatic amino acid residues of the selectivity pocket stabilize the dimethylphenol ring. As photoisomerization in stilbenes and azo dyes is accompanied by a perpendicular twist of the phenyl ring towards the former molecular plane, we assumed that this conformational change should provoke a differential binding situation at least for the dimethylphenol residue in 2a. Unfortunately, binding of 2b and c could not be localised in the vicinity of the selectivity pocket of Sirt2, so that the binding pose remains unclear.
The photoswitchable diazeno compound 11 was subjected to biological evaluation to test the effect of photoisomerization on the inhibitory activity. The enzyme assay mixture containing 11 was exposed to 5 minutes of 365 nm radiation and compared with the results of a non-irradiated measurement. […] Unfortunately, 365 nm radiation turned out to have only minor effects on the IC50 values of 11 (Table 3).
Cloning, expression and purification of recombinant proteins: Expression and purification of Sirt1_133-747, Sirt2_56−356, and Sirt3_118−395 was carried out as described previously. Identity and purity were verified by SDS-PAGE [65]. Protein concentration was determined by the Bradford assay.
Bioassay: The inhibitory effect of compounds 2a–h, 4a/b, 8a and 11 on Sirt1–3 was detected via a previously reported fluorescence based assay. The synthetic substrate Z-Lys(acetyl)-AMC (ZMAL) is deacetylated by sirtuins, followed by tryptic digestion and thereby release of […], leading to a fluorescent readout. Inhibition was determined by comparing percentage substrate conversion to a DMSO control after subtraction of the blank fluorescence signal. All compounds were tested at 100 µM, 50 µM and 10 µM, respectively. […] IC50 values were calculated with OriginPro 9.0 G using a non-linear regression to fit the dose response curve. An enzyme-free blank control and a 100% conversion control using AMC instead of ZMAL were measured as well. Inhibition measurements were performed in biological duplicates for all compounds.

NC(=O)c1cncc(N=Nc2ccc(F)cc2)c1 [Compound 11, 5-[(4-Fluorophenyl)diazenyl]nicotinamide]
t½ of PSS (thermal) [1]: 12.5 days
percentage of (Z)-11 in PSS ([2]; 365 nm irradiation): 84%
percentage of (Z)-11 in PSS ([2]; 452 nm irradiation, HPLC, UV–vis detection at isosbestic points): about 25%
Isomer composition ((E)-11 / (Z)-11) ([2]; PSS (365 nm), 5 minutes, λobs 244 nm): 17 / 83
Isomer composition ((E)-11 / (Z)-11) ([2]; PSS (365 nm), 5 minutes, λobs 270 nm): 16 / 84
Isomer composition ((E)-11 / (Z)-11) ([2]; PSS (452 nm), 1 minute, λobs 244 nm): 76 / 24
Isomer composition ((E)-11 / (Z)-11) ([2]; PSS (452 nm), 1 minute, λobs 270 nm): 74 / 26
Isomer composition ((E)-11 / (Z)-11) ([2]; thermal equilibrium (∆), λobs 244 nm): 98 / 2
Isomer composition ((E)-11 / (Z)-11) ([2]; thermal equilibrium (∆), λobs 270 nm): 99 / 1
melting point: 212.3 °C
IC50 ([3]; photostationary state (PSS) after 5 minutes of 365 nm irradiation): 24.1 ± 1.69 µM
IC50 ([3]; thermal equilibrium (∆), non-irradiated): 18.9 ± 1.38 µM
